The source made the active and inactive calls.
Key:
[1] = Luminescence Cell-Based/Microorganism Confirmation at Dose of Inhibitors of Trypanosoma cruzi Infection. [Related pubchem assays: 1885, 1968 ]; assay type: functional
[2] = Trypanosoma cruzi growth suppression in host cells – NIH3T3 host cells, beta-gal luminescence, confirmation (AID 2044); assay type: functional, cell-based;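 note: intracellular parasites grown in NIH/3T3 mouse fibroblasts as host cells; luminescent beta-galactosidase reporter signal from transgenic T. cruzi replicating inside host cells; inhibitors lower the luminescence signal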
[3] = Luminescence Cell-Based Secondary HTS screen to identify cytotoxic compounds of NIH3T3 cells. [Related pubchem assays: 1885, 1968 ]; assay type: functional
[4] = NIH3T3 cell viability loss – ATP luminescence, mouse fibroblasts, counter-screen, dose response (AID 2010); assay type: functional, cell-based;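 note: cells exposed to compound for about 90 hours before reading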
[5] = T. cruzi infection blockers in NIH3T3 cells – beta-gal luminescence, NIH3T3 host cells, confirmation (AID 2630); assay type: functional, cell-based; conditions: Mus musculus
Nonstructural protein 1 = Nonstructural protein 1 (Influenza A virus, UniProt Q194T2); assay type: functional, Influenza A virus (A/California/07/2009(H1N1))
MDCK [6] = assay: antiviral activity against H1N1 influenza, dose response, cell-based, strain KY180 (AID 540254); assay type: functional; conditions: Canis lupus familiaris
MDCK [7] = assay: MDCK cell cytotoxicity, dose response, cytotoxicity control (AID 540296); assay type: functional; conditions: Canis lupus familiaris
Keap1/Nrf2 = Keap1/Nrf2 (Homo sapiens, UniProt Q14145); assay: disruptors of Keap1 binding to Nrf2 peptide – biochemical, fluorescence polarization, cherry-picked samples, dose response (AID 588683)
HeLa = assay: ATP-based viability loss in HeLa cells – cell-based, CellTiter-Glo luminescence, cherry-pick samples, cytotoxicity control for MITF activator project, dose response (AID 540259); assay type: functional; conditions: Homo sapiens
[8] = target: Intestinal-type alkaline phosphatase (Mus musculus, UniProt P24822); assay: PubChem AID 488875; assay type: functional
[9] = target: T1, Intestinal-type alkaline phosphatase (Homo sapiens, UniProt P09923); assay: human intestinal alkaline phosphatase activators, dose response, biochemical, luminescence, uHTS hits (AID 463120); assay type: functional
[10] = target: T1, Intestinal-type alkaline phosphatase; assay: activation of human intestinal alkaline phosphatase – biochemical, luminescent, uHTS hits, set 2, dose response (AID 488817); assay type: functional;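 note: potency of activators that raise enzyme activity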
[11] = target: T2, Alkaline phosphatase, tissue-nonspecific isozyme (Homo sapiens, UniProt P05186); assay: activation of tissue-nonspecific alkaline phosphatase – biochemical, TNAP isozyme, human IAP uHTS hits, selectivity assay for human IAP activator project, dose response (AID 488886); assay type: functional;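 note: potency of compounds raising TNAP activity as a selectivity check on IAP activators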
T2 sequence (P05186 whole entry): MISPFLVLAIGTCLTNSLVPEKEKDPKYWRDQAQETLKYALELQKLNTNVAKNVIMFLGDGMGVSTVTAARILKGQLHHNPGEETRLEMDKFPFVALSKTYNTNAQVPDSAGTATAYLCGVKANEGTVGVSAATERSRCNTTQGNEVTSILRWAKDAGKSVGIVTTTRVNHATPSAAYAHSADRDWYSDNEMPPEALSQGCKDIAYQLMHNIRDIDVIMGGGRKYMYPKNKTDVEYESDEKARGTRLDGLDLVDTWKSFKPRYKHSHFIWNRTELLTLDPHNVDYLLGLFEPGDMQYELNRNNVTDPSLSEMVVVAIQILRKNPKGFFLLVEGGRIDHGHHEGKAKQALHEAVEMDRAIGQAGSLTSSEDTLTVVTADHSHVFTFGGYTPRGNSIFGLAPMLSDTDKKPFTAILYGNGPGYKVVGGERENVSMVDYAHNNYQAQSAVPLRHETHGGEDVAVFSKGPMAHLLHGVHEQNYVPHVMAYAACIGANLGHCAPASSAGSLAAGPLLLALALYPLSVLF

[12] = Luminescence Cell-Based Dose Retest to Confirm Inhibitors of Cancer Stem Cells. [Related pubchem assays (depositor defined):AID2717, AID2721]; assay type: functional; conditions: Homo sapiens
[13] = viability loss of HMLE_sh_eGFP cells – cell-based, luminescence, counter-screen for HMLE_sh_ECad selective toxicity project, dose response (AID 463074); assay type: functional, Homo sapiens;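 note: HMLE human mammary epithelial cells expressing control shRNA against eGFP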
[14] = target: T3, Mannose-6-phosphate isomerase (Homo sapiens, UniProt P34949); assay: phosphomannose isomerase inhibition – biochemical, fluorescence intensity, confirmation (AID 1535)
T3 sequence (P34949 whole entry): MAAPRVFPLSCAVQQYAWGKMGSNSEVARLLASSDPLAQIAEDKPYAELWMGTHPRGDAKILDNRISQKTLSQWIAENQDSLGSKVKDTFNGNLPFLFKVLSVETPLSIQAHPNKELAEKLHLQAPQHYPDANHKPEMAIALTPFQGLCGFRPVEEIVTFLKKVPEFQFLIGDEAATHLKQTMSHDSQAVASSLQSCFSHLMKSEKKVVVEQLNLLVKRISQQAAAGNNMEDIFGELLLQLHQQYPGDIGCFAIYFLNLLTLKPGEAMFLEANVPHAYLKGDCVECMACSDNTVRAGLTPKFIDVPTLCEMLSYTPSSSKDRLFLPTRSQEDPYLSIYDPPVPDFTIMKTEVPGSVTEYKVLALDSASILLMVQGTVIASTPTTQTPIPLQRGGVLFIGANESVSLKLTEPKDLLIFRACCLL

Phosphomannomutase 2 = Phosphomannomutase 2 (Homo sapiens, UniProt O15305); assay: Counter screen SAR assay for PMM2 inhibitors via a fluorescence intensity assay. [Related pubchem assays (depositor defined):AID1545, AID1574]
[15] = target: Phosphoethanolamine/phosphocholine phosphatase (Homo sapiens, UniProt Q8TCT1); assay: SAR assay for compounds that inhibit PHOSPHO1. [Related pubchem assays (depositor defined):AID1545, AID1565, AID1574]
Hexokinase-1 = target: T4, Hexokinase-1 (Homo sapiens, UniProt P19367); assay: hexokinase 1 activity inhibitors, potency – biochemical, set 2, resazurin fluorescence coupled readout, selectivity assay for HKDC1 inhibitor project, SAR follow-up (AID 588356); assay type: functional
T4 sequence (P19367 whole entry): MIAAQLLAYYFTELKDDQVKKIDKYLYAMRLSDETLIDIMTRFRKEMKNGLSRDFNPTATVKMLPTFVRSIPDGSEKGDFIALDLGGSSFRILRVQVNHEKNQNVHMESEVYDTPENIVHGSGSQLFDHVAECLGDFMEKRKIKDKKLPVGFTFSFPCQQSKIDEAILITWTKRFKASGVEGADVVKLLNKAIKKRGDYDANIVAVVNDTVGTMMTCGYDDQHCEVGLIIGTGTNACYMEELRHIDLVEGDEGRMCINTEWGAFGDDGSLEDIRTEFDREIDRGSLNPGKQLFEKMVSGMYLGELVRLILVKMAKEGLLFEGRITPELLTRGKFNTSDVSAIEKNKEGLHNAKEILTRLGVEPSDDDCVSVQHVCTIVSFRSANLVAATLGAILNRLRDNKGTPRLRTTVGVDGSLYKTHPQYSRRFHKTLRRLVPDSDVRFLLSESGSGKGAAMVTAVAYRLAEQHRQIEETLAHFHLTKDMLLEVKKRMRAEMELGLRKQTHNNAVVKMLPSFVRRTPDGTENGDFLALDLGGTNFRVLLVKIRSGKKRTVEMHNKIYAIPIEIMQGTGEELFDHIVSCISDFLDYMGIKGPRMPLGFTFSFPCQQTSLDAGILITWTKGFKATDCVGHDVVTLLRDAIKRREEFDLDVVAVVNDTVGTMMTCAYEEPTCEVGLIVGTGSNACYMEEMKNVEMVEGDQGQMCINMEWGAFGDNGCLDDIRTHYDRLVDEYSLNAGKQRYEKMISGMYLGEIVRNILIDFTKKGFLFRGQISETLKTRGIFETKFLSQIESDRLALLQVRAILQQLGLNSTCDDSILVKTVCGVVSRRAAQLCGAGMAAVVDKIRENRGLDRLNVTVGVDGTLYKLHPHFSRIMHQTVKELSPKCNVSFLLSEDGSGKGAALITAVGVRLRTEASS

Hexokinase HKDC1 = target: T5, Hexokinase HKDC1 (Homo sapiens, UniProt Q2TB90); assay: analog inhibition of human HKDC1 activity – biochemical, set 2, SAR follow-up (AID 588355); assay type: functional
T5 sequence (Q2TB90 whole entry): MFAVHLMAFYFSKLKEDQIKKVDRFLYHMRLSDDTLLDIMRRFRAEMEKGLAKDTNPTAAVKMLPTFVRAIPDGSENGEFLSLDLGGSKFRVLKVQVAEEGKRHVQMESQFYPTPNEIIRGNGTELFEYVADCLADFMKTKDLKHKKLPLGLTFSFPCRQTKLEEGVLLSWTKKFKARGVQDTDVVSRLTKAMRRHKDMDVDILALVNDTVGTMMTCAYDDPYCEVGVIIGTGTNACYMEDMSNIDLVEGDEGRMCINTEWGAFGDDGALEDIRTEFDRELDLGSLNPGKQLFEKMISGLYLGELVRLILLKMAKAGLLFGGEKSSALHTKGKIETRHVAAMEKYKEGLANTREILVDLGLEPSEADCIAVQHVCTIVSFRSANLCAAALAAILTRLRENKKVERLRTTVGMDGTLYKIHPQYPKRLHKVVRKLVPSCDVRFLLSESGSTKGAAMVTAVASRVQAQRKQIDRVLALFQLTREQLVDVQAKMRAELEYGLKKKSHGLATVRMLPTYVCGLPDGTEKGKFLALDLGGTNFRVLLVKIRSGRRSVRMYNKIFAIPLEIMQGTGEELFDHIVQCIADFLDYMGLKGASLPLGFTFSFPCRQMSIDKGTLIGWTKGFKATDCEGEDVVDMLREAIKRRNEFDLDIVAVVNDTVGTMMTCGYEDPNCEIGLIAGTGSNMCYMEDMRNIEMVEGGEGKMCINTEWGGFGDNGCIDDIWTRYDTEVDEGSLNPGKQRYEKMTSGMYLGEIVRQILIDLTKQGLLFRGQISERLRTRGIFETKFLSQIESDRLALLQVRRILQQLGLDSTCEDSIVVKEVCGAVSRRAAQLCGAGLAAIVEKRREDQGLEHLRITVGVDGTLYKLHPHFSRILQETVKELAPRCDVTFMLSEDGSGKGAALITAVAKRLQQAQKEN

[16] = target: T6, Short transient receptor potential channel 4 (Mus musculus, UniProt Q9QUQ5); assay: SAR Analysis for the identification of selective inhibits of the transient receptor potential cation channel C4 (TRPC4): Automated Electrophysiology_2. [Related pubchem assays (depositor defined):AID2256]; assay type: functional
T6 sequence (Q9QUQ5 whole entry): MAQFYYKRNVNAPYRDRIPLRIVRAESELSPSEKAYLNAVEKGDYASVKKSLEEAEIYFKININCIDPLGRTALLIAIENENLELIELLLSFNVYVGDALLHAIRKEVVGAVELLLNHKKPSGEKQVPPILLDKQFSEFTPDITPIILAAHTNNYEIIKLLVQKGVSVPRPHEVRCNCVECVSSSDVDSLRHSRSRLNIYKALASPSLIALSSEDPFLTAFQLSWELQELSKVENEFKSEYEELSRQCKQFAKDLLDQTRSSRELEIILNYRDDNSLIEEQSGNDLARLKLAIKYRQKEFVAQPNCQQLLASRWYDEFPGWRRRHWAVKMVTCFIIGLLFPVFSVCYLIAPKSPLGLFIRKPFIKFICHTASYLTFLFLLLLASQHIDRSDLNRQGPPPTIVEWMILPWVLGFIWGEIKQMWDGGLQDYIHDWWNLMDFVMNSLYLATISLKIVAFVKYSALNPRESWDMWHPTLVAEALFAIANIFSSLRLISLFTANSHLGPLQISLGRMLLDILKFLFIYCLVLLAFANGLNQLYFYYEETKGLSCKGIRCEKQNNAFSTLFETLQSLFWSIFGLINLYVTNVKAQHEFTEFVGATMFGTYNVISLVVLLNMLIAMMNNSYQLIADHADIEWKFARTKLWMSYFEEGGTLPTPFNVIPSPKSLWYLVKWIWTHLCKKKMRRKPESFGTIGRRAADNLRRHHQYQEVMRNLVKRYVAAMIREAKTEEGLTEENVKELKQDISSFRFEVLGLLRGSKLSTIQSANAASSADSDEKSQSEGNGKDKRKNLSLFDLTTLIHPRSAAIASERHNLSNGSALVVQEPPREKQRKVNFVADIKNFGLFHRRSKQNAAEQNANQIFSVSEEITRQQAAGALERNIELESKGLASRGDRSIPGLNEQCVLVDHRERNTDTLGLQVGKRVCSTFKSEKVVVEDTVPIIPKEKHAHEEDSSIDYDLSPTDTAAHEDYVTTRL

[17] = target: Heat shock protein HSP 90-alpha (Homo sapiens, UniProt P07900); assay type: functional, organism-based
[18] = target: Dual specificity tyrosine-phosphorylation-regulated kinase 1A (Rattus norvegicus, UniProt Q63470); assay type: biochemical, Homo sapiens

T1 sequence (P09923 whole entry): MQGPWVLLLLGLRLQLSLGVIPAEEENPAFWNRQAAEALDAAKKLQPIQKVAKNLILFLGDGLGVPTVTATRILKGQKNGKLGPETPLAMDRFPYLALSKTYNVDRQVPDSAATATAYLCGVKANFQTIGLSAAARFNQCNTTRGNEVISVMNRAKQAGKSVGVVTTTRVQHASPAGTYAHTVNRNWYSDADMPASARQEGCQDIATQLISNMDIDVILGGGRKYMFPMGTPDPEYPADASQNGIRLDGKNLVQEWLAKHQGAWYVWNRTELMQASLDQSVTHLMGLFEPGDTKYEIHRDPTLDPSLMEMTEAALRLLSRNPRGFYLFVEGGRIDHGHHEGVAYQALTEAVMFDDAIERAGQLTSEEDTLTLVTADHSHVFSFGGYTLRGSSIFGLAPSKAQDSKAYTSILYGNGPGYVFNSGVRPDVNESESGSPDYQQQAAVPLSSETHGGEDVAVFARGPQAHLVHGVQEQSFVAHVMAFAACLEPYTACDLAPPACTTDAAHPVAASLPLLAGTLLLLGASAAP
Phosphoethanolamine/phosphocholine phosphatase, sequence (Q8TCT1 whole entry): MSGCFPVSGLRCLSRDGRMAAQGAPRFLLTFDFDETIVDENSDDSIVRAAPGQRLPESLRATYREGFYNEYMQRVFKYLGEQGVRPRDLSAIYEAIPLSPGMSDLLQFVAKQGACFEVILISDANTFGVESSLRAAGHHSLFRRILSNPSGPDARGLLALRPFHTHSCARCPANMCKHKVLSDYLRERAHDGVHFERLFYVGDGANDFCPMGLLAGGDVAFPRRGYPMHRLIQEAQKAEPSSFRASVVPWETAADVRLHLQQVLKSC
Intestinal-type alkaline phosphatase (Mus musculus, UniProt P24822), sequence (P24822 whole entry): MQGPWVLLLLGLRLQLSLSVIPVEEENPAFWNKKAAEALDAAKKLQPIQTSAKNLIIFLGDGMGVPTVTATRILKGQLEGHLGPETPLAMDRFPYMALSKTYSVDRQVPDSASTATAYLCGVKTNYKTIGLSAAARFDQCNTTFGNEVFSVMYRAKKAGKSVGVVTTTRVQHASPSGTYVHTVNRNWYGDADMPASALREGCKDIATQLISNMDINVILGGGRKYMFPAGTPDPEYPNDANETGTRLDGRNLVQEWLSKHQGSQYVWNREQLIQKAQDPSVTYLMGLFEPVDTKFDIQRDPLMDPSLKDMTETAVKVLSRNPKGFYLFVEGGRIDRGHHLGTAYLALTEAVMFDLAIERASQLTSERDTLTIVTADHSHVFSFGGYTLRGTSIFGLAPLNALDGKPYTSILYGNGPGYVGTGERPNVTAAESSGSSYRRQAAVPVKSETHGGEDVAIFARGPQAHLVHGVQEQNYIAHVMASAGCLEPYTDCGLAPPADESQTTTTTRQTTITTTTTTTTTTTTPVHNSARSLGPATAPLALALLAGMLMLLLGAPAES
Nonstructural protein 1, sequence (Q194T2 whole entry): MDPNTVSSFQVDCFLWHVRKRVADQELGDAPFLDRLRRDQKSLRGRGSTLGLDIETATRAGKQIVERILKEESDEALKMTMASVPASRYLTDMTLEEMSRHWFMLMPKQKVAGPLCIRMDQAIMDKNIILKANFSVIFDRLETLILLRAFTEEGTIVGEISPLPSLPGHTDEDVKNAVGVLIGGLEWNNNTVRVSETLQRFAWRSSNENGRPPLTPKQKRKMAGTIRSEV
Phosphomannomutase 2, sequence (O15305 whole entry): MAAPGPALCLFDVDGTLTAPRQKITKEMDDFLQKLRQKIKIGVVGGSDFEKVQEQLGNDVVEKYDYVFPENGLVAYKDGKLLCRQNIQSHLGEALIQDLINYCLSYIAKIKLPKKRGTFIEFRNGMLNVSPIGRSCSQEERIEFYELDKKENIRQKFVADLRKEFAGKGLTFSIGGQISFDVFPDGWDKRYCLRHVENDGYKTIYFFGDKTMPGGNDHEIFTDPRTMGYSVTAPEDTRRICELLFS
Keap1/Nrf2, sequence (Q16236 whole entry): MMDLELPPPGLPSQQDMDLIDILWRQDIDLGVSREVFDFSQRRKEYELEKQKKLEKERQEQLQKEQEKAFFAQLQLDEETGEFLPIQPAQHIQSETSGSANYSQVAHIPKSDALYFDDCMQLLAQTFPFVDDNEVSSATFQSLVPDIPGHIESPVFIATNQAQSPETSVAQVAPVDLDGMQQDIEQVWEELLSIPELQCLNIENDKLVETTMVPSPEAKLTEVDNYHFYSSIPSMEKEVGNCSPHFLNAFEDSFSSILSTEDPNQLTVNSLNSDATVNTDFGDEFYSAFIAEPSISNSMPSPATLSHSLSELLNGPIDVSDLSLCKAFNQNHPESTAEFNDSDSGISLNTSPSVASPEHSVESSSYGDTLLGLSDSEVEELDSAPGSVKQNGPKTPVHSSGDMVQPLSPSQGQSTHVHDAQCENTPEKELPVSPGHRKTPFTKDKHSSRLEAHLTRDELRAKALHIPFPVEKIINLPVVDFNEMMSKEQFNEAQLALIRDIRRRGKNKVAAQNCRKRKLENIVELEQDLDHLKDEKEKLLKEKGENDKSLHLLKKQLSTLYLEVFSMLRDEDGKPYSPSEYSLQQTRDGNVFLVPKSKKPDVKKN
Keap1/Nrf2, sequence (Q14145 whole entry): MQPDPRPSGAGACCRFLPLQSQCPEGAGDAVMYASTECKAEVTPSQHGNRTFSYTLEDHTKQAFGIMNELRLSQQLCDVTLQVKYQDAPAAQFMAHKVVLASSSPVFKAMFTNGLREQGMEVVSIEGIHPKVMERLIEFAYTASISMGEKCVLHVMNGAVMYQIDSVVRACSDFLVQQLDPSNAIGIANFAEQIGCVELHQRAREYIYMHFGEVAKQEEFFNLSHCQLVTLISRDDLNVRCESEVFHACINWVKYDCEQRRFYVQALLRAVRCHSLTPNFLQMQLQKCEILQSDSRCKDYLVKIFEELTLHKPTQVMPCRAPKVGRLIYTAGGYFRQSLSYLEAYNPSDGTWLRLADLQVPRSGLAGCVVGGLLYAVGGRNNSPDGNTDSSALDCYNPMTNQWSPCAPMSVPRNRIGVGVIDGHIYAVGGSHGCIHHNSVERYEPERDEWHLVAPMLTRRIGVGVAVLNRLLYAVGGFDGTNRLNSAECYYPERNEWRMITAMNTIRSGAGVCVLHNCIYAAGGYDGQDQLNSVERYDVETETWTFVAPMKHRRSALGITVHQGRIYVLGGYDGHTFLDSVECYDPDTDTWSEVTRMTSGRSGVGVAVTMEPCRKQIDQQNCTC

## Cc1ccccc1OCCCCCn1ccnc1
[1]
  EC50: 0.417 µM (active)
[2]
  EC50: 0.54 µM (active)
[3]
  EC50: 116 µM (active)
[4]
  EC50: > 60 µM (not active)
[5]
  EC50: 0.417 µM (active)

## CCOC(=O)c1c(CN(C)C)oc2cc(CN(C)C)c(O)c(CSc3ccccc3)c12
Nonstructural protein 1
  IC50: > 100 µM (active)
MDCK [6]
  IC50: 22.6 µM (active)
MDCK [7]
  CC50: 19.5 µM (active)

## CCCCOc1ccc(C2OC34CCCCC3C(C#N)(C#N)C2(C#N)C(=N)O4)cc1 (centres undefined)
Keap1/Nrf2
  AC50: > 52 µM (inactive)

## CCCN(Cc1ccc(C)cc1)C(=O)c1ccc(CNS(=O)(=O)c2ccc(C(C)=O)cc2)cc1
HeLa
  AC50: 37.4 µM (active)

## COc1ccc(CN2CCC(n3nccc3NC(=O)CCCc3ccccc3)CC2)cc1C
[8]
  EC50: 75 µM (active)
[9]
  EC50: 77.4 µM (active)
[10]
  EC50: 72.5 µM (active)
[11]
  EC50: 70.1 µM (active)

## Cc1ccc2ncnc(Nc3ccc(C)c(C)c3)c2c1
[12]
  AC50: 1.03 µM (active)
[13]
  AC50: 63.8 µM (active)

## O=c1c2c([N+](=O)[O-])cc([N+](=O)[O-])cc2sn1-c1cccc(F)c1
[14]
  IC50: 30.1 µM (active)
Phosphomannomutase 2
  IC50: 2.08 µM (active)
[15]
  IC50: 0.0348 µM (active)

## Cc1ccc(NC2c3ccccc3C(=O)N2c2ccccc2C)cc1 (centres undefined)
Hexokinase-1
  IC50: > 80 µM (inactive)
Hexokinase HKDC1
  IC50: > 80 µM (inactive)

## Cc1cc(N2CCN(c3ccccc3C#N)CC2)nc2ccccc12
[16]
  IC50: 8.9 µM (active)

## O=[N+]([O-])c1cc(/C=N/O)ccc1Oc1ccccc1Cl
[17]
  AC50: 3.04 µM (active)
[18]
  AC50: 3.19 µM (active)

Source: ChEMBL document CHEMBL1201862, “PubChem BioAssay data set” (2004)
